Test results: the NIST ThermoML archive (doi:10.1021/acs.jced.7b00578)
Where “and” joins values, the source holds several entries; their conditions need not be identical. Equal entries are not always repeated.

Experiments:
[1] = for vapor or sublimation pressure: Liquid, Closed cell (Static) method
[2] = Molar enthalpy of transition or fusion; conditions: Crystal; DSC
[3] = molar heat capacity at constant pressure; conditions: 101.33 kPa, Liquid, Extra sensitive DSC

CC1CCC(=O)O1 (stereo not given) [γ-valerolactone]
Conditions | molar heat capacity at constant pressure [J/K/mol] | vapor or sublimation pressure
[1], 238.07 K | – | 0.00014 kPa
[1], 238.08 K | – | 0.00015 kPa
[1], 238.09 K | – | 0.00015 kPa
[1], 243.06 K | – | 0.00026 kPa
[1], 243.07 K | – | 0.00026 kPa
[1], 248.13 K | – | 0.00048 kPa
[1], 253.14 K | – | 0.00082 kPa
[1], 258.15 K | – | 0.00138 kPa
[1], 263.14 K | – | 0.00228 kPa
[1], 268.14 K | – | 0.00369 kPa
[1], 273.14 K | – | 0.00586 kPa
[1], 273.15 K | – | 0.00586 kPa
[1], 273.63 K | – | 0.00612 kPa
[1], 273.64 K | – | 0.00612 kPa
[1], 278.14 K | – | 0.00912 kPa
[1], 283.14 K | – | 0.01396 kPa and 0.01395 kPa
[1], 288.14 K | – | 0.02098 kPa and 0.02097 kPa
[1], 288.15 K | – | 0.021 kPa
[1], 293.13 K | – | 0.03106 kPa
[1], 293.14 K | – | 0.03111 kPa and 0.03109 kPa
[1], 298.14 K | – | 0.04532 kPa and 0.04531 kPa
[1], 303.13 K | – | 0.06501 kPa and 0.06502 kPa
[1], 308.14 K | – | 0.09212 kPa and 0.09211 kPa
[3], 265.37 K | 167.7 | –
[3], 270 K | 168.6 | –
[3], 275 K | 169.6 | –
[3], 280 K | 170.7 | –
[3], 285 K | 171.81 | –
[3], 290 K | 172.91 | –
[3], 295 K | 174.11 | –
[3], 300 K | 175.31 | –
[3], 305 K | 176.61 | –
[3], 310 K | 177.81 | –
[3], 315 K | 179.11 | –
[3], 320 K | 180.42 | –
[3], 325 K | 181.72 | –
[3], 330 K | 183.02 | –
[3], 335 K | 184.22 | –
[3], 340 K | 185.52 | –
[3], 345 K | 186.72 | –
[3], 350 K | 187.93 | –
[3], 355 K | 189.13 | –
[3], 358.5 K | 189.93 | –

Conditions | Normal melting temperature [°C]
[1], Crystal, DTA | -34.81

Conditions | Molar enthalpy of transition or fusion [kcal/mol]
[2] | 1.7
